Measurements: patent publication US9040488B2, “Imino sugar derivatives demonstrate potent antiviral activity and reduced toxicity” (Baruch S. Blumberg Institute, priority 2008, dated 2015)
Where two headings read alike, the source gives them in different places.

How the values were obtained:
BVDV (NADL strain) [1] = type: cell-based, Bovine viral diarrhea virus
MDBK cells = assay: Cytotoxicity (MTT) in MDBK cells; type: cell-based
Procedure: (§1) Compound toxicity assay. Compound cytotoxicity was assessed by using an MTT based toxicity assay kit (Sigma, St. Louis, Mo.) as described elsewhere. Briefly, cells cultured under conditions identical to those used in the viral assay were incubated with various concentrations of the compound for 72 hours. MTT was added to the media to a final concentration of 0.5 mg/ml and was incubated for 3 hours at 37 C. After the culture media was removed, formazan crystals was dissolved by adding 150 ul of solubilization solution (10% Triton X-100, 0.1N HCl in anhydrous isopropanol) for 15-30 minutes. The absorbance of the dissolved formazan was measured spectrophotometrically at 570 nm with absorbance at 690 nm as background.

HCV = HCV infection, intracellular HCV RNA level by real-time RT-PCR; type: cell-based, hepatitis C virus; conditions: for EC50: read-out: EC50 against HCV infection; for EC90: read-out: EC90 against HCV infection
Excerpt: Another embodiment of the present invention is the use of imino sugar glucosidase inhibitors in the treatment of HCV. Imino sugar glucosidase inhibitors show equal or better efficacy than celgosivir.

[2] = Cytotoxicity (CC50) in the HCV infection test; type: cell-based; conditions: Table 3, HCV infection test
Ebola (Zaire strain) = type: cell-based, Ebola virus
[3] = system: Dengue virus (DV) serotype 2, New Guinea C; assay: microbe, parasite or virus in culture; type: cell-based
[4] = system: Tacaribe virus (21573 strain); type: cell-based
BHK cells = assay: Cytotoxicity (MTT) in BHK cells; type: cell-based
Procedure: as §1

[5] = in vivo, po, 100 mg/kg
[6] = system: Junin virus (JUNV, Romero strain); type: cell-based
[7] = system: West Nile virus (2002 Texas isolate); assay: microbe, parasite or virus in culture; type: cell-based
[8] = Cytotoxicity (MTT) in BHK cells; type: cell-based; conditions: hamster; BHK cells (for Dengue and West Nile virus), 3 days treatment
Procedure: as §1

BVDV (NADL strain) [9] = conditions: tissue culture, test viruses such as BVDV and DV; cited from earlier work
[10] = BHK cells (for Dengue and West Nile virus), 3 days treatment, read-out: CC50
[11] = Table 5, read-out: CC50 in BHK cells

CC(=O)O.OC[C@@H]1[C@@H](O)[C@H](O)[C@@H](O)CN1CCCCCCC1(O)CCCCC1 [CM-9-70]
EC50 (BVDV (NADL strain) [1]): 18 µM
EC90 (BVDV (NADL strain) [1]): 82.5 µM
anti-BVDV activity (BVDV (NADL strain) [1]): retains similar antiviral activity
CC50 (MDBK cells): > 500 µM

CC(=O)O.CC1CCC(OCCCCCCN2C[C@H](O)[C@@H](O)[C@H](O)[C@H]2CO)CC1 (stereo partly shown) [CM-9-78]
EC50 (HCV): 5 µM
EC90 (HCV): 160 µM
CC50 [2]: > 500 µM
EC50 (Ebola (Zaire strain)): 7.5 µM
EC90 (Ebola (Zaire strain)): > 100 µM
EC50 ([3]; read-out: DV EC50): 6.75 µM
EC90 ([3]; read-out: DV EC90): 13 µM
EC50 ([3]; read-out: Dengue EC50): 6.8 µM
EC90 ([3]; read-out: Dengue EC90): 13 µM
EC50 (BVDV (NADL strain) [1]): 8.1 ± 3.4 µM
EC90 (BVDV (NADL strain) [1]): 59 ± 22 µM
CC50 (MDBK cells): > 500 µM
EC50 [4]: 10 µM
EC90 [4]: > 100 µM
CC50 (vero cells): > 500 µM
CC50 (BHK cells; [10]): > 100 µM
CC50 (BHK cells; [11]): > 40 µM
plasma concentration [5]: above 30 μM
EC50 [6]: 2 µM
EC90 [6]: > 100 µM

O[C@H]1[C@H](O)[C@@H](O)CN2CC[C@H](O)[C@H]12 [Castano., Castanospermin]
EC50 (HCV): 295 µM
EC90 (HCV): > 500 µM
CC50 [2]: > 500 µM

CCCC(=O)O[C@H]1CN2CC[C@H](O)[C@@H]2[C@@H](O)[C@@H]1O [Celgosivir, celgosivir]
EC50 (HCV; Hepatitis C virus): 3.8 µM
EC90 (HCV; Hepatitis C virus): 100 µM
CC50 [2]: > 500 µM

OC[C@H]1NC[C@H](O)[C@@H](O)[C@@H]1O [DNJ, deoxynojirimycin, reference compound]
EC50 ([3]; Dengue virus, BHK, read-out: Dengue EC50): 500 µM
EC50 ([7]; West Nile virus, BHK, read-out: West Nile EC50): > 500 µM
CC50 at 72 h [8]: 20 to 100 µM

CCCCN1C[C@H](O)[C@@H](O)[C@H](O)[C@H]1CO [NBDNJ, N-butyl-DNJ, reference compound]
EC50 ([7]; read-out: West Nile EC50): > 100 µM
CC50 (BHK cells; [10]): 20 to 100 µM

CCCCCCCCCN1C[C@H](O)[C@@H](O)[C@H](O)[C@H]1CO [NNDNJ, N-nonyl-DNJ, reference compound]
EC50 (HCV): 2.5 µM
EC90 (HCV): > 500 µM
CC50 [2]: 280 µM
EC50 (Ebola (Zaire strain)): 12 µM
EC90 (Ebola (Zaire strain)): 85 µM
EC50 ([3]; read-out: Dengue EC50): 1 to 4 µM
EC90 ([3]; read-out: Dengue EC90): 3 to 10 µM
EC50 (BVDV (NADL strain) [1]): 7.3 ± 0.4 µM
EC90 (BVDV (NADL strain) [1]): 71 ± 7.1 µM
EC50 ([7]; read-out: West Nile EC50): 4 µM
CC50 (MDBK cells): 245 ± 134 µM
EC50 [4]: 3 µM
EC90 [4]: 70 µM
CC50 (vero cells): 100 µM
CC50 (BHK cells; [10]): 20 to 100 µM
EC50 [6]: 0.7 µM
EC90 [6]: > 100 µM
potency compared with DNJ or short alkyl side chain DNJ derivatives such as NBDNJ (BVDV (NADL strain) [9]): 100 times

OC[C@@H]1[C@@H](O)[C@H](O)[C@@H](O)CN1CCCCCC1(O)CCCCC1 [OSL95-II, N-pentyl-(1-hydroxycyclohexyl)-DNJ, reference compound]
EC50 (HCV): 6 µM
EC90 (HCV): 125 µM
CC50 [2]: > 500 µM
EC50 (Ebola (Zaire strain)): 0.6 µM
EC90 (Ebola (Zaire strain)): 8 µM
EC50 ([3]; read-out: DV EC50): 4 µM
EC90 ([3]; read-out: DV EC90): 8.7 µM
EC50 ([3]; read-out: Dengue EC50): 4 µM
EC90 ([3]; read-out: Dengue EC90): 8.7 µM
EC50 (BVDV (NADL strain) [1]): 10.9 ± 2.7 µM
EC90 (BVDV (NADL strain) [1]): > 100 µM
EC50 ([7]; read-out: WNV EC50): 4.5 µM
EC50 ([7]; read-out: West Nile EC50): 4.5 µM
CC50 (MDBK cells): > 500 µM
EC50 [4]: 29 µM
EC90 [4]: > 100 µM
CC50 (vero cells): > 500 µM
CC50 (BHK cells; [10]): > 100 µM
CC50 (BHK cells; [11]): > 100 µM
EC50 [6]: 0.75 µM
EC90 [6]: 68 µM

CC(C)[C@@H]1CC[C@@H](C)C[C@H]1OCCCCCCN1C[C@H](O)[C@@H](O)[C@H](O)[C@H]1CO [PBDNJ0801]
EC50 ([3]; read-out: DV EC50): 0.1 µM
EC90 ([3]; read-out: DV EC90): 0.2 µM
EC50 ([3]; read-out: Dengue EC50): 0.1 µM
EC90 ([3]; read-out: Dengue EC90): 0.2 µM
EC50 (BVDV (NADL strain) [1]): 1.6 ± 1.2 µM
EC90 (BVDV (NADL strain) [1]): 14.8 ± 3.9 µM
EC50 ([7]; read-out: WNV EC50): 4.75 µM
EC90 ([7]; read-out: WNV EC90): 19 µM
EC50 ([7]; read-out: West Nile EC50): 4.75 µM
EC90 ([7]; read-out: West Nile EC90): 19 µM
CC50 (MDBK cells): 235 ± 21 µM
CC50 (BHK cells; [10]): 80 µM
CC50 (BHK cells; [11]): 70 µM

Cc1ccc(C)c(OCCCCCCN2C[C@H](O)[C@@H](O)[C@H](O)[C@H]2CO)c1 [PBDNJ0803]
EC50 ([3]; read-out: DV EC50): 0.1 µM
EC90 ([3]; read-out: DV EC90): 0.6 µM
EC50 ([3]; read-out: Dengue EC50): 0.1 µM
EC90 ([3]; read-out: Dengue EC90): 0.6 µM
EC50 (BVDV (NADL strain) [1]): 3.7 ± 3.8 µM
EC90 (BVDV (NADL strain) [1]): 29.2 ± 29 µM
EC50 ([7]; read-out: WNV EC50): 1.5 µM
EC90 ([7]; read-out: WNV EC90): 20 µM
EC50 ([7]; read-out: West Nile EC50): 1.5 µM
EC90 ([7]; read-out: West Nile EC90): 20 µM
CC50 (MDBK cells): 485 ± 21 µM
EC50 [4]: 2 µM
EC90 [4]: 75 µM
CC50 (vero cells): 300 µM
CC50 (BHK cells; [10]): 85 µM
CC50 (BHK cells; [11]): 75 µM
EC50 [6]: 0.5 µM
EC90 [6]: 2 µM
antiviral activity against Junin virus infection [6]: most potent

C[C@@H]1CCCCC1OCCCCCCN1C[C@H](O)[C@@H](O)[C@H](O)[C@H]1CO (stereo partly shown) [PBDNJ0804]
EC50 (Ebola (Zaire strain)): 0.5 µM
EC90 (Ebola (Zaire strain)): 5 µM
EC50 ([3]; read-out: DV EC50): 0.075 µM
EC90 ([3]; read-out: DV EC90): 0.6 µM
EC50 ([3]; read-out: Dengue EC50): 0.08 µM
EC90 ([3]; read-out: Dengue EC90): 0.6 µM
EC50 (BVDV (NADL strain) [1]): 3 ± 1.4 µM
EC90 (BVDV (NADL strain) [1]): 13 ± 1.7 µM
EC50 ([7]; read-out: WNV EC50): 3.5 µM
EC90 ([7]; read-out: WNV EC90): 33 µM
EC50 ([7]; read-out: West Nile EC50): 3.5 µM
EC90 ([7]; read-out: West Nile EC90): 33 µM
CC50 (MDBK cells): > 500 µM
EC50 [4]: 1.5 µM
EC90 [4]: 50 µM
CC50 (vero cells): 500 µM
CC50 (BHK cells; [10]): 65 µM
CC50 (BHK cells; [11]): 70 µM
EC50 [6]: 0.45 µM
EC90 [6]: 0.9 µM
antiviral activity against Junin virus infection [6]: most potent
